Laboratory results published in patent US20260217691A1, “FOXM1 INHIBITORS AND THEIR USE IN TREATING CANCERS” (THE BOARD OF TRUSTEES OF THE UNIVERSITY OF ILLINOIS, priority 2022, published 2026).

Tests used:
[1] = tested on: canonical FOXM1 target genes; experiment: Real-time PCR of canonical FOXM1 target genes in primary AML mononuclear cells treated ex vivo; assay type: cell-based, human; details: primary AML samples (n=5), 5 μM, 24 h
[2] = target: T1, FOXM1 (Homo sapiens, UniProt Q08050); experiment: FOXM1 protein levels by immunoblotting in leukemia/AML cell lines; assay type: cell-based; design: Total protein samples obtain from treated cells were analyzed for FOXM1 protein levels via immunoblotting; endogenous in cells; host or cells: KG-1, HL-60, K562, THP-1 leukemia cell lines
T1 sequence (Q08050 1-763): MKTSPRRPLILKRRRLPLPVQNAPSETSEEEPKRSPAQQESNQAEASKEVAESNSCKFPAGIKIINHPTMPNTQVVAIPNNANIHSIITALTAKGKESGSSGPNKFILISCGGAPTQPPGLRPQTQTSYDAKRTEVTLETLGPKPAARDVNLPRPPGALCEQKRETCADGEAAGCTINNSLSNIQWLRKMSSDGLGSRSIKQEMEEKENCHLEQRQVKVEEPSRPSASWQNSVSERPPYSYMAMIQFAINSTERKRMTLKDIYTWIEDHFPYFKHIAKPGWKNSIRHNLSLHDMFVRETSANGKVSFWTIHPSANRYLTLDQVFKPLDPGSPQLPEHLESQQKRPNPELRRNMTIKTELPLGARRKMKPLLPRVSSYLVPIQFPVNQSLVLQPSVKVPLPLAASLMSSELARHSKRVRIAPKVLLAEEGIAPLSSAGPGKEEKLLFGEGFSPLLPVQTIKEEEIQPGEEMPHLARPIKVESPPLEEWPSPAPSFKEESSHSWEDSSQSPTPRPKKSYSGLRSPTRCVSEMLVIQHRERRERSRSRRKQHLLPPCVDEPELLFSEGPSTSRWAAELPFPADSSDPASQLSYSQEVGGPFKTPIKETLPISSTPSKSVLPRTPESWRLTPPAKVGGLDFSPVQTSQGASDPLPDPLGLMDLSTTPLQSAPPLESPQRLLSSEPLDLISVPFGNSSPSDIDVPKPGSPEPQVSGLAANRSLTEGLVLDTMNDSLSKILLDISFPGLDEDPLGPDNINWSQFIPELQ
Protocol: [a] Leukemia cells, KG-1, HL-60 and K562 were treated with increasing concentrations of STL427944 for 24 hrs. […] [b] THP1 and KG-1 cells were treated with indicated concentrations of venetoclax and STL427944 alone or in combination for 24 hrs. [c] KG-1 and K562 cells were treated with indicated concentrations of cytarabine and STL427944 alone or in combination for 24 hrs.
FIG. 8. STL427944 treatment of human leukemia cell lines suppress FOXM1 protein expression. (a) STL427944 treatment of human leukemia cell lines inhibit FOXM1 protein expression and sensitize cells to venetoclax treatment. […] (b) Stable shRNA-mediated FOXM1 knockdown prominently sensitizes KG-1 cells to cytotoxic effect of venetoclax. (c, d) combined treatment with STL427944 and venetoclax suppresses FOXM1 in KG-1 and THP-1 cells and synergistically promotes cytotoxic effects similarly to FOXM1 knockdown. Total protein was isolated from cells immediately after the treatment and analyzed via immunoblotting with FOXM1 antibodies). Apoptosis induction was estimated based on caspase-3 cleavage.
FIGS. 9A and 9B: Novel FOXM1 inhibitor STL001 sensitizes Leukemia cells to chemotherapy agents. [a] Structural formula of novel FOXM1 inhibitor STL001. [b] Leukemia cells, KG-1, HL-60, and K562 were treated with increasing concentrations of STL001 for 24 hrs. […] [c] KG-1 cells were treated with indicated concentrations of Laptomycin B, Chloroquine, and STL001 for 24 hrs. […] [d] KG-1, HL-60, and K562 cells were treated with indicated concentrations of venetoclax and STL001 alone or in combination for 24 hrs. [e] KG-1, HL-60, and K562 cells were treated with indicated concentrations of cytarabine and STL alone or in combination for 24 hrs.
FIGS. 13A-13H STL001 is a novel FOXM1 inhibitor that sensitizes leukemia cells to standard cytotoxic and bcl2 inhibitor therapies. FIG. 13A AML cell line KG-1 treated with precursor compound STL427944. FIG. 3B AML cell lines KG-1, HL-60, and K562 were treated with increasing concentrations of STL001 for 24 h. Total protein samples obtained from treated cells were analyzed for FOXM1 protein levels using immunoblotting; β-actin was used as the internal loading control. FIG. 13C KG-1, HL-60, and K562 cells were treated with indicated concentrations of venetoclax and STL001 alone or in combination for 24 h. FIG. 13D KG-1, HL-60, and K562 cells were treated with indicated concentrations of cytarabine and STL001 alone or in combination for 24 h. […] FIG. 13E KG-1 cells were treated with indicated concentrations of Leptomycin B, Chloroquine, and STL001 for 24 h. Total protein samples obtained from treated cells were analyzed for FOXM1 protein levels via immunoblotting; β-actin was used as an internal loading control. FIG. 13F KG-1 cell lines with shRNA knockdown of FOXM1 were treated with venetoclax and STL001 and compared to parental cells. FIG. 13G Real-time PCR-based expression profiling for canonical FOXM1 target genes was performed on primary AML mononuclear cells (n=5) treated ex vivo with STL001 5 μM for 24 h. Mean and standard error of the delta Ct for DMSO or treatment group are plotted for each gene. P-value is estimated by two-tailed paired t-test. Asterisks denote P<0.05. FIG. 13H Treatment of peripheral blood mononuclear cells with STL001 for 24 h followed by immunohistochemistry for FOXM1. Slides were scanned on an Aperio AT2 brightfield scanner and images were analyzed using HALO 2.0 software. Hematoxylin counterstain was used to segment nuclei within the ROIs and to establish an accurate cell count. Percent cells with nuclear FOXM1 expression compared between DMSO and STL001 treated cells. P-value is based on one-tailed paired t-test.

[3] = tested on: OVCAR-8, ES-2 cells; experiment: Chemosensitization (caspase-3 cleavage) of ovarian cancer cells to doxorubicin; assay type: cell-based, human
Protocol: FIG. 16. […] (A) Ovarian cancer (OVCAR-8 and ES-2) cells were treated with indicated concentrations of Doxorubicin (Doxo) alone or in combination with STL001 for 24 hrs. […] (C) colon cancer (HCT-116 and FET) cells were treated with indicated concentrations of 5′FU alone or in combination with STL001 for 24 hrs.

[4] = tested on: KG-1, HL-60, K562, THP-1 cells; assay type: cell-based
[5] = KG-1, HL-60 and K562 cells, 24 h

SMILES: O=C(Oc1cccc(-c2ccn(-c3nc(Nc4ccccc4)nc(N4CCOCC4)n3)n2)c1)c1ccco1 [STL001]
- expression of FOXM1 transcriptional targets AURKB and CDC25B [1]: significantly suppressed expression
- expression of PLK1 and FOXM1 [1]: downregulation
- concentration suppressing FOXM1 ([2]; AML cell lines): 0.5 µM
- FOXM1 localization ([2]; AML cells): localizes FOXM1 to the cytoplasm
- lowest concentration with dose-dependent inhibition of FOXM1 protein expression ([2]; KG-1, HL-60, K562, 24 h): 500 nM
- improvement in efficiency to suppress FOXM1 / increased potency as FOXM1 inhibitor versus STL427944 ([2]; estimated, relative to STL427944): up to 50 fold
- FOXM1 protein levels ([2]; leukemia cell lines, increasing concentrations, 24 h): dose-dependent inhibition of FOXM1 protein expression
- cytotoxic effects as a single agent [3]: did not exert significant cytotoxic effects
- apoptotic cell death (caspase-3 cleavage) in combination with doxorubicin ([3]; 24 hrs): potent induction of apoptotic cell death
- cytotoxic action alone ([4]; AML cell lines, single agent): did not exert prominent cytotoxic action on its own
- apoptosis (caspase-3 cleavage) in combination with cytarabine [4, 5]: potent induction of apoptosis
- apoptosis (caspase-3 cleavage) in combination with venetoclax [4, 5]: potent induction of apoptosis
- treatment sensitization effect in cells with stable knockdown of FOXM1 ([4]; KG-1 shFOXM1 cells, venetoclax): absent
